Test results: patent US20060024658A1, “Composition and methods for evaluating an organism's response to alcohol or stimulants” (priority 1998, published 2006)
Read-outs that look alike come from different tables or passages of the source.

Legend:
[1] = system: DBH protein in SH-SY5Y cells
Procedure: (§1) The relative amount of DBH protein between whole cell homogenates of control and ethanol-treated cells was determined by Western blot analysis following standard protocols using a polyclonal antibody (Calbiochem). MCP-1 production was monitored in the culture media of cells treated in the absence or presence of ethanol using the Quantikine MCP-1 immunoassay from R&D System.

[2] = system: MCP-1 release from SH-SY5Y cells; conditions: ethanol-treated cells; FIG. 4C
Procedure: as §1

[3] = system: human neuroblastoma SH-SY5Y cells; assay: Oligonucleotide array (Affymetrix GeneChip Hu6800) gene expression profile after ethanol; conditions: 72 h
[4] = ethanol administration; cited from earlier work
SHSY-5Y cells = assay: Effects of alcohols on gene expression (array hybridization intensity) in SHSY-5Y cells, Study 1; format: cell-based, human; conditions: for Co-Activ increase in hybridization / MAP4 increase in hybridization / Na/H Anti increase in hybridization / ZNFP increase in hybridization: 50 mM alcohol, early (2 hour) response, FIG. 2B; for DBH hybridization intensity over baseline / DLK hybridization intensity over baseline / GABA-β3 hybridization intensity over baseline / NPTX2 hybridization intensity over baseline / PDGFR hybridization intensity over baseline / PTK hybridization intensity over baseline: FIG. 2A
Source text: Hybridization strength is given a baseline of 1 and increased intensity is expressed in as a multiple of the baseline, i.e., 2-fold, 3-fold, 4-fold etc.
Column 1 lists the presumed functional class of the gene.
Columns are similar to Table 8.

SH-SY5Y cells [5] = conditions: 150 mM ethanol, 3 days, media from last 24 h, n=3; control 0.957+/−0.49
Procedure: All HPLC apparatus was from ESA, Inc. (Chelmsford, Mass.). Following precipitation with 0.1 M perchloric acid and centrifugation over a 5000 MW cut-off centrifugal filter, culture media (10 μl aliquot) was injected onto an ESA HR-80 column (C-18, 4.6 mm×8 cm, 3 um particle size) using a Model 540 refrigerated autosampler injector and a Model 580 solvent delivery pump. […] Eluents were detected at a flow rate of 1.0 ml/min using a Model 5011 analytical cell with palladium reference electrode, a Model 5020 guard cell, and a Model 5200A Coulochem II electrochemical detector. Electrode settings were +350 mV for the guard cell, −100 mV for the pre-oxidation electrode, and +280 mV for the detection electrode. Samples were analyzed at 5 nA sensitivity and compared with a two-point monoamine standard calibration curve at 1 and 5 pg/μl using the Model 501 analysis software package.

[6] = system: DBH mRNA in adrenal glands and brain; conditions: versus saline
Procedure: Animal studies were conducted on female DBA/2 mice (Simonsen Laboratories, Gilroy, Calif.) weighing 20-30 g at 8 weeks of age. All animals were housed individually under a 12:12 light-dark cycle at 22° C. and given ad libitum access to food and water before and after injection procedures. […] Adrenal glands were dissected out, immediately frozen into liquid nitrogen and stored at −80° C. until needed.
Aliquot of ss cDNA were then used in comparative PCR. […] We performed duplex reaction using GAPDH as an endogenous amplification standard. PCR conditions were optimized so that the amplification of both, GAPDH and DBH cDNAs were in the exponential phase.

SH-SY5Y cells [7] = system: SH-SY5Y cells
Source text: RNA blots were probed with ^32P-labeled inserts of human DBH, NET, DLK and MCP-1 cDNAs. Probes were synthesized by RT-PCR using SH-SY5Y total RNA as template. […] Human GAPDH cDNA probe (Clonetech) was used as an internal control for total RNA normalization.

noradrenergic receptors = conditions: in vivo; cited from earlier work
SH-SY5Y cells [8] = assay: Effect of dexamethasone and db-cAMP on expression of DBH, NET, DLK and MCP-1; format: cell-based, human; conditions: 1 mM; data not shown
Source text: Previous studies have shown that neuroblastoma cells derived from the neural crest could differentiate either towards a more neuronal phenotype in the presence of retinoic acid, or a chromaffin-like phenotype in the presence of glucocorticoids or dibutyryl-cyclic AMP (db-cAMP). […] Therefore, we tested the effect of dexamethasone and db-cAMP on the expression of our 4 candidate genes.

[9] = 50, 100, 150 mM ethanol, FIG. 3B

In the case of `CCO` [ethanol], the DBH protein expression ([1]; 150 mM ethanol for 72 h, FIG. 4B) is reported as “enhancement in DBH protein expression”, the “duration of increase in DBH protein levels” value ([1]; continued presence of ethanol, data not shown) is reported as “sustained up to 7 days treatment” and the “MCP-1 peptide release in the culture media” value [2] is reported as “decrease in peptide release”. The “E100, change in expression of ARHGDIB (L20688)” value ([3]; 100 mM ethanol) was −0.7, the “E100, change in expression of CPE (X51405)” value ([3]; 100 mM ethanol) was 1.2 and the “E100, change in expression of DBH (X13255)” value ([3]; 100 mM ethanol) was 5.4. The “E100, change in expression of DLK1 (T49117)” value ([3]; 100 mM ethanol) was 2.9, the “E100, change in expression of DUSP4 (U21108)” value ([3]; 100 mM ethanol) was 0.9 and the “E100, change in expression of E2-28.4 (EST) (R01227)” value ([3]; 100 mM ethanol) was 1. For the same compound, the “E100, change in expression of EGFR (H02836)” value ([3]; 100 mM ethanol) was 1, the “E100, change in expression of EST H08637 (NF1)” value ([3]; 100 mM ethanol) was 0.9 and the “E100, change in expression of EST R47985 (Acrosin)” value ([3]; 100 mM ethanol) was −1.3. For the same compound, the “E100, change in expression of EST R60751 (IEP2)” value ([3]; 100 mM ethanol) was −0.8, the “E100, change in expression of EST R73461 (TCRbeta)” value ([3]; 100 mM ethanol) was −3.7 and the “E100, change in expression of EST T94087 (JNK2)” value ([3]; 100 mM ethanol) was 1. The “E100, change in expression of FKHL1 (R60332)” value ([3]; 100 mM ethanol) was −0.9, the “E100, change in expression of GCH1 (U19523)” value ([3]; 100 mM ethanol) was 1.6 and the “E100, change in expression of GLRX (X76648)” value ([3]; 100 mM ethanol) was 1.4. The “E100, change in expression of GPI-H (L19783)” value ([3]; 100 mM ethanol) was −0.6, the “E100, change in expression of GSTM4 (M99422)” value ([3]; 100 mM ethanol) was 0.9 and the “E100, change in expression of HIRH (H14506)” value ([3]; 100 mM ethanol) was −1. The “E100, change in expression of IL7 (J04156)” value ([3]; 100 mM ethanol) was −0.7, the “E100, change in expression of KRT18 (T53412)” value ([3]; 100 mM ethanol) was −2.3 and the “E100, change in expression of LUM (U21128)” value ([3]; 100 mM ethanol) was 1.6. For the same compound, the “E100, change in expression of MCP1 (M26683)” value ([3]; 100 mM ethanol) was −1.9, the “E100, change in expression of MGP (H52207)” value ([3]; 100 mM ethanol) was −0.7 and the “E100, change in expression of NAIP (U19251)” value ([3]; 100 mM ethanol) was 0.9. For the same compound, the “E100, change in expression of NEF3 (Y00067)” value ([3]; 100 mM ethanol) was 1.4, the “E100, change in expression of NFIB2/3 (H91713)” value ([3]; 100 mM ethanol) was 2.1 and the “E100, change in expression of NP (T47964)” value ([3]; 100 mM ethanol) was 0.5. The “E100, change in expression of NPTX2 (U29195)” value ([3]; 100 mM ethanol) was 0.9, the “E100, change in expression of NSMAF (R41765)” value ([3]; 100 mM ethanol) was 1.1 and the “E100, change in expression of PGY1 (M29447)” value ([3]; 100 mM ethanol) was 2.3. The “E100, change in expression of PMSCL2 (R40490)” value ([3]; 100 mM ethanol) was 0.7, the “E100, change in expression of PRHX (X67235)” value ([3]; 100 mM ethanol) was 1 and the “E100, change in expression of RAC2 (H42477)” value ([3]; 100 mM ethanol) was −0.9. The “E100, change in expression of RPL14 (R82938)” value ([3]; 100 mM ethanol) was −0.5, the “E100, change in expression of SLC6A2(NET) (M65105)” value ([3]; 100 mM ethanol) was 2.6 and the “E100, change in expression of SOX9 (Z46629)” value ([3]; 100 mM ethanol) was −1.2. For the same compound, the “E100, change in expression of SPARC (T54767)” value ([3]; 100 mM ethanol) was −1.3, the “E100, change in expression of SSH3BP1 (R34245)” value ([3]; 100 mM ethanol) was 0.7 and the “E100, change in expression of TMPO (U09086)” value ([3]; 100 mM ethanol) was 1. The “E100, change in expression of TP53 (X54156)” value ([3]; 100 mM ethanol) was −1.1, the “E100, change in expression of ZNF42 (R83364)” value ([3]; 100 mM ethanol) was −1.9 and the “DBH mRNA levels, dose dependence” value [3, 9] was “changed in a dose-dependent manner”. The “DLK, NET and MCP-1 gene expression, dose dependence” value [3, 9] was “showed a dose-response”, the “expression of gene encoding α7 subunit of the neuronal acetylcholine receptor (nAChRα7)” value ([3]; 100 mM ethanol, FIG. 3A) was “downregulated” and the plasma norepinephrine levels [4] was “dose-dependent elevation”. The “Co-Activ increase in hybridization” value (SHSY-5Y cells) was 4 fold, the “MAP4 increase in hybridization” value (SHSY-5Y cells) was 3 fold and the “Na/H Anti increase in hybridization” value (SHSY-5Y cells) was ~6 fold. For the same compound, the “ZNFP increase in hybridization” value (SHSY-5Y cells) was 7.5 fold, the “DBH hybridization intensity over baseline” value (SHSY-5Y cells; 50 mM ethanol) was 3 fold and the “DLK hybridization intensity over baseline” value (SHSY-5Y cells; 50 mM ethanol, baseline = 1) was “just over the baseline”. The “GABA-β3 hybridization intensity over baseline” value (SHSY-5Y cells; 50 mM ethanol, baseline = 1) was “just over the baseline”, the “NPTX2 hybridization intensity over baseline” value (SHSY-5Y cells; 50 mM ethanol, baseline = 1) was “just over the baseline” and the “PDGFR hybridization intensity over baseline” value (SHSY-5Y cells; 50 mM ethanol, baseline = 1) was “just over the baseline”. For the same compound, the “PTK hybridization intensity over baseline” value (SHSY-5Y cells; 50 mM ethanol, baseline = 1) was “just over the baseline”, the “DBH hybridization intensity over baseline” value (SHSY-5Y cells; 100 mM ethanol) was 5 fold and the “DLK hybridization intensity over baseline” value (SHSY-5Y cells; 100 mM ethanol) was 3 fold. The “GABA-β3 hybridization intensity over baseline” value (SHSY-5Y cells; 100 mM ethanol) was “around 2 fold”, the “NPTX2 hybridization intensity over baseline” value (SHSY-5Y cells; 100 mM ethanol) was “around 2 fold” and the “PDGFR hybridization intensity over baseline” value (SHSY-5Y cells; 100 mM ethanol) was 3 fold. For the same compound, the “PTK hybridization intensity over baseline” value (SHSY-5Y cells; 100 mM ethanol) was 3 fold, the “DBH hybridization intensity over baseline” value (SHSY-5Y cells; 150 mM ethanol) was ~9 fold and the “DLK hybridization intensity over baseline” value (SHSY-5Y cells; 150 mM ethanol) was ~7 fold. The “GABA-β3 hybridization intensity over baseline” value (SHSY-5Y cells; 150 mM ethanol) was 2 fold, the “NPTX2 hybridization intensity over baseline” value (SHSY-5Y cells; 150 mM ethanol) was 2 fold and the “PDGFR hybridization intensity over baseline” value (SHSY-5Y cells; 150 mM ethanol) was 5 fold. For the same compound, the “PTK hybridization intensity over baseline” value (SHSY-5Y cells; 150 mM ethanol) was 2 fold, the “NE levels in the media” value (SH-SY5Y cells [5]) was 23.554+/−5.218 ng/mg of protein and the “DBH mRNA levels in the brain” value ([6]; 6 or 24 h after single dose 4 g/kg i.p., data not shown) was “No difference in expression”. The “DBH mRNA levels in the adrenal” value ([6]; 6 h after single dose 4 g/kg i.p., data not shown) was “No difference in expression”, the “DBH mRNA levels in the adrenal” value ([6]; 24 h after single dose 4 g/kg i.p., FIG. 5) was “significant increase” and the “DBH, DLK and NET mRNA levels” value (SH-SY5Y cells [7]; 3 days treatment, FIG. 4A) was “increase”. The MCP-1 transcript levels (SH-SY5Y cells [7]; 3 days treatment, FIG. 4A) was “decrease” and the “time after addition at which changes in expression were detected” value (SH-SY5Y cells [7]; DBH, DLK, NET, MCP-1, data not shown) was ≤ 24 h.
In the case of `CCCO` [propanol, reference compound], the “Co-Activ increase in hybridization” value (SHSY-5Y cells) is reported as > 6.5 fold, the “MAP4 increase in hybridization” value (SHSY-5Y cells) is reported as 4 fold and the “Na/H Anti increase in hybridization” value (SHSY-5Y cells) is reported as 6.5 fold. The “ZNFP increase in hybridization” value (SHSY-5Y cells) was > 6 fold.
For `Clc1cccc(Cl)c1N=C1NCCN1` [clonidine], the ethanol withdrawal syndrome (noradrenergic receptors) is given as “strongly reduce ethanol withdrawal syndrome”.
For `CO` [methanol, reference compound], the “Co-Activ increase in hybridization” value (SHSY-5Y cells) was 1.5 fold, the “MAP4 increase in hybridization” value (SHSY-5Y cells) was > 2 fold and the “Na/H Anti increase in hybridization” value (SHSY-5Y cells) was 1.5 fold. For the same compound, the “ZNFP increase in hybridization” value (SHSY-5Y cells) was 1.5 fold.
In the case of `CCCC(=O)Nc1ncnc2c1ncn2[C@@H]1O[C@@H]2COP(=O)(O)O[C@H]2[C@H]1OC(=O)CCC` [db-cAMP, dibutyryl-cyclic AMP], the “time after treatment at which effects were significant” value (SH-SY5Y cells [8]) is reported as ≤ 24 h.
